These results are taken from patent US11008325B2, “Inhibitors of cancer invasion, attachment, and/or metastasis” (VIRGINIA COMMONWEALTH UNIVERSITY, priority 2016, dated 2021).

Read-outs that look alike come from different tables or passages of the source.

The subject of one test is mouse xenograft model. The settings on record: in vivo; cited from earlier work.
For a further test, the system named is human cancer cell lines. To be noted: cited from earlier work.
In test [1] the target is T1, MDA-9 PDZ12 tandem domain (PDZ1) (Homo sapiens, UniProt O00560).
T1 construct: the MDA-9/Syntenin construct used for the screen contains both PDZ domains; made in house
T1 sequence (O00560 110-274): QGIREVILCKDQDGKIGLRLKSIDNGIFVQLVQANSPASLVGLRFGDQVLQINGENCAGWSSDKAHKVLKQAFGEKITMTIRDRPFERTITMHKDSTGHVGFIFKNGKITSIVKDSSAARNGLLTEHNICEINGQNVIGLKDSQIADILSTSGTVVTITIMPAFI
The test is described as follows: NMR [15N,1H] HSQC chemical shift change and titration binding. To be noted: for Binding affinity ranking: chemical shift change (DPPM) of backbone amide of residue 147, 50 μM PDZ12, compound at 1:1 molar ratio. On the procedure:
FIGS. 4A-4E. FIG. 4A. […] FIG. 4B. Superposition of 2D [^15N, ^1H]-HSQC spectra of 50 μM MDA-9 PDZ12 tandem domain in the absence and presence of 350 μM 113B7. FIG. 4C. Binding curve and representative spectra for the titration of 113B7 against MDA-9 PDZ12 tandem domain. Top: Zoom of box region in FIG. 4B after titrating 113B7 into Mda9 PDZ, tandem domain. […] Bottom: Titration curve of 113B7 for residue A147. […] FIG. 4D. […] FIG. 4E. Docked structure of 113B7 in complex with MDA-9 PDZ tandem domain (PDB: 1W9E). The pose was obtained with GOLD. Two PDZ domains of MDA-9 are labeled.
NMR based screening of an house assembled fragment library of about 5,000 compounds using [^15N,^1H] […] The proposed docked structure of PDZ1i in the PDZ1 domain and interdomain of MDA-9/Syntenin is shown in FIGS. 4A-4E and FIG. 5, while the chemical structure of PDZ1i is also shown in FIGS. 4A-4E and FIG. 5.
In all binding assays, the MDA-9/Syntenin construct used for the screen contains both PDZ domains. Constructs uniformly labeled with ^15N and ^13C or ^13C-Met selectively labeled are used for binding, mapping and structural studies. These same proteins are used for ITC binding studies.

Another test in a line: migration (SAR, Table 4). The format is cell-based.
Test [2] relates to Dishevelled PDZ/Fz7 Wnt receptor. The settings on record: Xenopus embryos; cited from earlier work.
[3] abbreviates: NMR titration following backbone amide of residue 147, read-out: Kd values.

For the compound `CCCCC(O)C1Nc2cc(C)c(C(=O)O)cc2C1CCc1ccccc1` (stereo not shown), the tumor growth result in the test on mouse xenograft model is “tumor growth inhibition in a mouse xenograft model”. Also, the apoptosis entry in the test on human cancer cell lines is reported as “Induction of apoptosis in human cancer cell lines”.
Regarding `Cc1cc(=O)n2nc(COc3ccccc3)nc2[nH]1` [30A9], in test [1] (setting [3]), the Kd came out at 197 µM. In addition, the Binding affinity ranking in test [1] is 4 (4 for DPPM 0.06-0.08).
For the compound `Cc1cc(=O)n2nc(C(=O)Nc3ccc(O)cc3)nc2[nH]1` [112D11], the Kd in test [1] (setting [3]) worked out at 245 µM. Moreover, the Binding affinity ranking in test [1] is 2 (2 for DPPM 0.02-0.04).
For `Cc1cc(=O)n2nc(C(=O)Nc3ccc(N)cc3)nc2[nH]1` [112E7], the Kd in test [1] (setting [3]) is 944 µM. Besides, the Binding affinity ranking in test [1] is on record as 1 (1 for DPPM 0.00-0.02).
For `O=C(Nc1ccc(O)cc1)c1nc2[nH]c3c(c(=O)n2n1)CCC3` [112E12] the same measures were 1610 µM and 1 (1 for DPPM 0.00-0.02).
For the compound `Cc1cc(O)n2nc(C(=O)Nc3ccc(O)cc3)nc2n1` [112F1], the Binding affinity ranking in test [1] was 1 (1 for DPPM 0.00-0.02).
For `O=C(Nc1ccc(O)c(Cl)c1)c1nc2[nH]c3c(c(=O)n2n1)CCC3` [112F10], in test [1], the Binding affinity ranking is 4 (4 for DPPM 0.06-0.08).
As to `O=C(Nc1cc(Cl)c(O)c(Cl)c1)c1nc2[nH]c3c(c(=O)n2n1)CCC3` [112F11], the Binding affinity ranking in test [1] is on record as 5 (5 for DPPM 0.08-0.1).
Take `O=C(Nc1ccc(O)c(F)c1)c1nc2[nH]c3c(c(=O)n2n1)CCC3` [112F12]: the Kd in test [1] (setting [3]) amounted to 166 µM. In addition, the Binding affinity ranking in test [1] is listed as 2 (2 for DPPM 0.02-0.04).
The corresponding values for `Cc1cc(=O)n2nc(C(=O)Nc3cc(Cl)c(O)c(Cl)c3)nc2[nH]1` [112G1] are 57.3 µM and 6 (6 for DPPM above 0.1).
For `Cc1cc(=O)n2nc(C(=O)Nc3ccc(O)c(F)c3)nc2[nH]1` [112G2] the same measures were 147 µM and 4 (4 for DPPM 0.06-0.08).
On to `O=C(Nc1ccc(O)c(Cl)c1)c1nc2[nH]c3c(c(=O)n2n1)CCC3` [112G3], for which, in test [1] (setting [3]), the Kd was 119 µM.
Take `Cc1cc(=O)n2nc(C(=O)Nc3cc(Cl)c(N)cc3Cl)nc2[nH]1` [112G4]: the Kd was 34.3 µM in test [1] (setting [3]) and roughly 300 µM in test [1] (fragment hits, FIG. 55B, read-out: Kd). Also, in test [1], the Binding affinity ranking was 6 (6 for DPPM above 0.1).
Take `Nc1ccc(NC(=O)c2nc3[nH]c4c(c(=O)n3n2)CCC4)cc1` [112G11]: the Kd in test [1] (setting [3]) is 263 µM. The Binding affinity ranking in test [1] was 2 (2 for DPPM 0.02-0.04).
Regarding `Cc1cc(NC(=O)c2nc3[nH]c4c(c(=O)n3n2)CCC4)c(C)cc1NC(=O)CCc1nnc(-c2cccc(C(F)(F)F)c2)o1` [112H9], in the test “migration (SAR, Table 4)”, the “% migr.” value was 24%. For the same compound, the equilibrium dissociation constant (Kd) is 38.3 µM in test [1] (setting [3]) and 38 µM in test [1] (estimated by NMR titration in 2D HSQC experiments (Table 4), read-out: Kd). In test [1], the Binding affinity ranking is 2 (2 for DPPM 0.02-0.04).
With `Cc1c(C)c(NC(=O)c2nc3[nH]c4c(c(=O)n3n2)CCC4)c(C)c(C)c1N` [113B8], in test [1] (setting [3]), the Kd was found to be 151 µM. Moreover, the Binding affinity ranking in test [1] was 5 (5 for DPPM 0.08-0.1).
Turning to `Cc1cc(NC(=O)c2nc3[nH]c4c(c(=O)n3n2)CCC4)c(C)cc1NC(=O)Cc1ccc(-c2ccccc2)cc1` [113B9], in test [1], the Binding affinity ranking result is given as “N.B”.
On the same count and under the same terms, the value for `Cc1cc(NC(=O)c2nc3[nH]c4c(c(=O)n3n2)CCC4)c(C)cc1NC(=O)CCc1nnc(-c2ccsc2)o1` [113B11] was 3 (3 for DPPM 0.04-0.06); that for `COc1ccc(Br)c(-c2nnc(CCC(=O)Nc3cc(C)c(NC(=O)c4nc5[nH]c6c(c(=O)n5n4)CCC6)cc3C)o2)c1` [113B12] was 1 (1 for DPPM 0.00-0.02).
Take `CC(NC(=O)C(OC(=O)C(C)NC(=O)OC(C)(C)C)C(C)C)C(=O)OC(C(=O)O)C(C)C` (stereo not shown) [NSC-668036]: the “Wnt3A-induced canonical Wnt signaling” value in test [2] is recorded as “In Xenopus embryos, NSC-668036 inhibits the canonical Wnt signaling induced by Wnt3A (34)”.
On to `Cc1cc(=O)n2nc(NCc3ccccc3)nc2[nH]1` [cmpd1], for which the Binding affinity ranking in test [1] was 2 (2 for DPPM 0.02-0.04).
Same read-out and setting: the value for `Cc1cc(=O)n2nc(CCc3ccccc3)nc2[nH]1` [cmpd2] was 3 (3 for DPPM 0.04-0.06); that for `O=c1c2c([nH]c3nc(NCc4cccs4)nn13)CCC2` [cmpd3] was 1 (1 for DPPM 0.00-0.02).
Still for that read-out and setting: the value for `Cc1cc(=O)n2nc(SCc3ccccc3)nc2[nH]1` [cmpd4] was 4 (4 for DPPM 0.06-0.08); that for `Cc1[nH]c2nc(C(=O)NCc3ccccc3)nn2c(=O)c1C` [cmpd5] was 2 (2 for DPPM 0.02-0.04); that for `O=c1[nH]c2sc3c(c2c2ncnn12)CCCC3` [cmpd6] was 1 (1 for DPPM 0.00-0.02).
Take `Cc1cc(=O)n2nc(C(=O)Nc3ccc4c(c3)OCCO4)nc2[nH]1` [cmpd7]: the Binding affinity ranking in test [1] was 2 (2 for DPPM 0.02-0.04).
Turning to `COc1cccc(NC(=O)c2nc3[nH]c(C)cc(=O)n3n2)c1` [cmpd8], the Binding affinity ranking in test [1] is 3 (3 for DPPM 0.04-0.06).
The same measure, in the same setting: the result for `Cc1cc(=O)n2nc(C(=O)Nc3ccc4c(c3)OCO4)nc2[nH]1` [cmpd9] reads 3 (3 for DPPM 0.04-0.06).
`Cc1cc(=O)n2nc(C(=O)Nc3cccc(Cl)c3)nc2[nH]1` [cmpd10]: the Kd in test [1] (setting [3]) is 151 µM. Besides, the Binding affinity ranking in test [1] is reported as 4 (4 for DPPM 0.06-0.08).
Consider `O=c1c2c([nH]c3nc(COc4ccccc4)nn13)CCC2` [cmpd11], for which, in test [1] (setting [3]), the Kd worked out at 171 µM. For the same compound, in test [1], the Binding affinity ranking is 5 (5 for DPPM 0.08-0.1).
For `O=c1c2c([nH]c3nc(CCc4ccccc4)nn13)CCC2` [cmpd13], the Binding affinity ranking in test [1] is 3 (3 for DPPM 0.04-0.06).
Consider `CCCc1cc(=O)n2nc(COc3ccccc3)nc2[nH]1` [cmpd14], for which the Binding affinity ranking in test [1] is listed as 1 (1 for DPPM 0.00-0.02).
As for GSKTLQSWRRYH [Fz7 peptide], the “Wnt3A-induced canonical Wnt signaling” value in test [2] is “peptide attenuates Wnt3A-induced”.
With SGKLKLMTTV [Dapper peptide], in test [2], the “Wnt3A-induced canonical Wnt signaling” value is “peptide attenuates Wnt3A-induced”.
